In brackets after ≈: the same amount, converted by molar mass.
What was measured:
[1] = High throughput Caco-2 permeability; assay type: in vitro ADME; conditions: human, Caco-2, pH 7.4, 10 µmol/l, 2 h; for Papp A→B at 2 h, 10 µmol/l: apical to basolateral; for Papp B→A at 2 h, 10 µmol/l: basolateral to apical
Method: (§1) High throughput Caco-2 permeability was performed in the TranswellR 0.4 µm polycarbonate membrane 96-well system with modified methods. Caco-2 cells were maintained at 37 °C in a humidified incubator with an atmosphere of 5% CO2. The cells were cultured in 75 cm^2 flasks with Dulbecco’s Modified Eagle’s Medium (DMEM) containing 10% (v/v) FBS, 1% (v/v) non-essential amino acids (NEAA), 100 units/ml of penicillin, and 100 µg/ml of streptomycin. The Caco-2 cells were seeded onto inserts at a density of 2 × 10^4 cells/insert separately. The medium in the wells was exchanged each other day, and the trans epithelial electrical resistance (TEER) value was measured using an epithelial voltohm meter (Millipore, Billerica, Massachusetts). […] For transport experiments, each cultured monolayer on the 96-well plate was washed twice with a transport buffer (HBSS containing 25 mM HEPES, pH 7.4). The permeability assay was initiated by the addition of each compound solution (10 µmol/l) into inserts (apical side, A) or receivers (basolateral side, B). The Caco-2 cell monolayers were incubated for 2 h at 37 °C. Fractions were collected from receivers (if apical to basal permeability) or inserts (if basal to apical permeability), and concentrations were assessed by UPLC/MS (Waters; Milford, MA). All compounds were tested in triplicates. The A → B (or B → A) apparent permeability coefficients (Papp) of each compound were calculated using the equation, Papp = dQ/dt × 1/AC0, where dQ/dt equals the flux of a drug across the monolayer, A equals the total insert well surface area, and C0 is the initial concentration of substrate in the donor compartment. The efflux ratio was determined by dividing the Papp in the B-A direction by the Papp in the A-B direction.

[2] = Solubility assay (μSOL Evolution); assay type: physicochemical; conditions: 18 h at RT; for solubility at 18 h: citrate phosphate-buffered saline (isotonic) with 1% DMSO
Method: Solubility assays were carried out on a Biomek FX lab automation workstation (Beckman Coulter, Inc., Fullerton, CA) using μSOL Evolution software (pION Inc., Woburn, MA). The detailed method is described as follows. 10 µl of 10 mM compound stock (in DMSO) was added to 190 μl 1-propanol to make a reference stock plate. In total, 5 µl from this reference stock plate were mixed with 70 µl 1-propanol and 75 µl citrate phosphate-buffered saline (PBS; isotonic) to make the reference plate, and the UV spectrum (250–500 nm) of the reference plate was read. In total, 6 µl of 10 mM test compound stock was added to 594 µl buffer in a 96-well storage plate and mixed. The storage plate was sealed and incubated at RT for 18 h. The suspension was then filtered through a 96-well filter plate (pION Inc., Woburn, MA). In all, 75 µl of filtrate was mixed with 75 µl 1-propanol to make the sample plate, and the UV spectrum of the sample plate was read. Calculations were carried out with μSOL Evolution software based on the area under the curve (AUC) of the UV spectrum of the sample and reference plates. All compounds were tested in triplicate.

[3] = target: T1, MAGE-A11:PCF11 interaction (GST-MAGE-A11 MHD and FAM-PCF11_4) (Homo sapiens, UniProt P43364); test: TR-FRET dose response test of compounds for disruption of MAGE-A11:PCF11 binding; conditions: Supplementary Data 4; read-out: TR-FRET, IC50
T1 construct: GST-MAGE-A11 MHD (human MAGE-A11 MHD amino acid 218-429); made in house; host or cells: E. coli BL21(DE3)
T1 sequence (P43364 218-429): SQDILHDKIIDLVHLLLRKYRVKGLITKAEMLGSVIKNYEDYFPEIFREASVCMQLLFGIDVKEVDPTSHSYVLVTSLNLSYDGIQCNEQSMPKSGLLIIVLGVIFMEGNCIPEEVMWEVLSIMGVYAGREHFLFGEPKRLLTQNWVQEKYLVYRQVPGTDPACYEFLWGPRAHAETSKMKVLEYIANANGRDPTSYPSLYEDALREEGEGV
Procedure, shortened: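 Competition of compounds against binding of FAM-PCF11_4 peptide to GST-MAGE-A11 MHD, detected with Tb-anti-GST, in 50 mM Tris pH 7.5, 20 mM MgCl2, 0.1 mg/ml BSA, 1 mM DTT. 90 min at ~25 °C; 520/490 nm emission ratio (340 nm excitation) fitted for IC50.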

Caco-2 cells = test: High throughput Caco-2 permeability; assay type: in vitro ADME; conditions: 10 µmol/l, 2 h; for Papp A→B: apical to basolateral; for Papp B→A: basolateral to apical
Method: as §1

SMILES | IC50 [3] | Papp A→B (Caco-2 cells) | Papp B→A (Caco-2 cells) | Solubility [2] | Papp A→B at 2 h, 10 µmol/l [1] | Papp B→A at 2 h, 10 µmol/l [1] | solubility at 18 h [2]
FC(F)(F)c1cc(-c2ccc3c(NCCCNCc4ccco4)ccnc3c2)cc(C(F)(F)F)c1 [SJ000311270-01, FC(F)(F)c1cc(cc(c1)C(F)(F)F)c2ccc3c(NCCCNCc4occc4)ccnc3c2] | 580 nM |  |  |  | 0.326 ×10⁻⁶ cm/s | 0.079 ×10⁻⁶ cm/s | 61.1 µM (≈ 30.1 µg/mL)
CC(C)(C)c1ccc(-c2ccc3c(NCCCNCc4ccco4)ccnc3c2)cc1 [SJ000311286-01, CC(C)(C)c1ccc(cc1)c2ccc3c(NCCCNCc4occc4)ccnc3c2] | 1160 nM |  |  |  | 0.578 ×10⁻⁶ cm/s | 0.12 ×10⁻⁶ cm/s | 56.2 µM (≈ 23.2 µg/mL)
CC(C)(C)c1ccc(-c2ccc3c(NCCCNCc4ccc5[nH]ccc5c4)ccnc3c2)cc1 [SJ001008068-01] | 130 nM | 0.368 ×10⁻⁶ cm/s | 1.54 ×10⁻⁶ cm/s | 0.67 µM (≈ 0.31 µg/mL) |  |  | 

The next lines start with results.

IC50 [3] | Papp A→B (Caco-2 cells) | Papp B→A (Caco-2 cells) | Solubility [2] | SMILES | Papp A→B at 2 h, 10 µmol/l [1] | Papp B→A at 2 h, 10 µmol/l [1] | solubility at 18 h [2]
200 nM | 0.498 ×10⁻⁶ cm/s | 0.229 ×10⁻⁶ cm/s | 0.12 µM (≈ 0.0651 µg/mL) | FC(F)(F)c1cc(-c2ccc3c(NCCCNCc4ccc5[nH]ccc5c4)ccnc3c2)cc(C(F)(F)F)c1 [SJ001008069-01] |  |  | 
3500 nM | 2.73 ×10⁻⁶ cm/s | 18.9 ×10⁻⁶ cm/s | 34.77 µM (≈ 13.4 µg/mL) | C=CC(=O)N(CCCNc1ccnc2ccccc12)Cc1ccc2[nH]ccc2c1 [SJ001009807-01] |  |  | 

Source: PMC7529893, “Structural basis for substrate recognition and chemical inhibition of oncogenic MAGE ubiquitin ligases” (Nature Communications, 2020)
